Like-named read-outs stand apart in the source and are kept apart here. Values belong to the compound of their own block, whether it stands above or below them.
Key:
[1] = molecular target: T1, wild-type human CaSR (calcium-sensing receptor) (Homo sapiens, UniProt P41180); experiment: Ca2+i mobilisation (Fluo-8), operational model of allosteric modulation; assay type: cell-based; details: for Kb: read-out: pKB ± SEM (KB) (converted)
T1 construct: full-length wild-type, cmyc-tagged
T1 sequence (P41180 20-1078): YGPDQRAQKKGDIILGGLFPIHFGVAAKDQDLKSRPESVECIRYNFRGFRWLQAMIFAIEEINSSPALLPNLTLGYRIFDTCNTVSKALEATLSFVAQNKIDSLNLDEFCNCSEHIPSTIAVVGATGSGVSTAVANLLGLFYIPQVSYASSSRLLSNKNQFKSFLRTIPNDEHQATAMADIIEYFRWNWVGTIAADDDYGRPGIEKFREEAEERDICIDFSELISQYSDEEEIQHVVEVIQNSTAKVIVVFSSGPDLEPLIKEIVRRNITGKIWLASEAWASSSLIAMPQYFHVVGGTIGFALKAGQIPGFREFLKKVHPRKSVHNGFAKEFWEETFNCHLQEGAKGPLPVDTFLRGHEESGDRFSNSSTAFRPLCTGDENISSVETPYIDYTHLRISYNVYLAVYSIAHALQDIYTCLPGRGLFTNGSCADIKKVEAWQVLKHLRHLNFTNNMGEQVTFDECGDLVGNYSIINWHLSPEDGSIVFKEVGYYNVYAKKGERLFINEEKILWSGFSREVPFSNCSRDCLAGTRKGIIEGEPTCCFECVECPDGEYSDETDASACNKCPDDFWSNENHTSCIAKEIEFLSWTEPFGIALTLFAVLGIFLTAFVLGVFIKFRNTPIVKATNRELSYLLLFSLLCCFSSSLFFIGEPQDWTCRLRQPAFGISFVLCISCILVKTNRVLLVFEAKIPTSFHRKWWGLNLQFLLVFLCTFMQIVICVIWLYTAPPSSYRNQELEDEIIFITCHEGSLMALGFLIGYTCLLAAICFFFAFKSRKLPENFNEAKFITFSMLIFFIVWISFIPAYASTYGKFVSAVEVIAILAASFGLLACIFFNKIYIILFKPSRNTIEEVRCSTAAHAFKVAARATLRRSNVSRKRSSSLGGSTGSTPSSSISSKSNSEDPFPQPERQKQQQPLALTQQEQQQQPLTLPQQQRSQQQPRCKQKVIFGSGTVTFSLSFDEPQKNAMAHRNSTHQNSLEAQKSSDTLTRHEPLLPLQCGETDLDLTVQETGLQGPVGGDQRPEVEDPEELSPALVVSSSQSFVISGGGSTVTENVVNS
From the text: Ca2+i mobilisation (Fluo-8), operational model of allosteric modulation on wild-type human CaSR (calcium-sensing receptor)

[2] = molecular target: T1, wild-type human CaSR (calcium-sensing receptor); experiment: Ca2+i mobilisation (Fluo-8), four-parameter sigmoidal fit with shared Hill slope; assay type: cell-based; details: positive allosteric modulation of Ca2+o response, pH 7.4, 37 °C; KB not determinable
[3] = functional affinity estimate (from pKB), positive allosteric modulator, allosteric site, Ca2+o as orthosteric agonist, pH 7.4, 37 °C, reanalysis of the authors' previously published data, cited from earlier work

SMILES: Cc1ccc(C(C)(O)c2nc3ccccc3s2)c(C)c1 (racemic) [compound 1, 1-(Benzo[d]thiazol-2-yl)-1-(2,4-dimethylphenyl)ethan-1-ol]
Kb [1, 3]: 3.4 µM

SMILES: Cc1ccc(C(O)(c2nc3ccccc3s2)C(F)(F)F)c(C)c1 (racemic) [compound 5, 5]
Kb [1, 3]: 5 µM

SMILES: COC(C)(c1nc2ccccc2s1)c1ccc(C)cc1C (racemic) [compound 8, 2-(1-(2,4-Dimethylphenyl)-1-methoxyethyl)benzo[d]thiazole]
fold increase in Ca2+o potency (pEC50) at 10 μM [2]: 1.8 fold

The remaining lines, values ahead:

Kb [1]: 8.1 µM
SMILES: C=CC(O)(c1nc2ccccc2s1)c1ccc(C)cc1C (racemic) [7b, 1-(Benzo[d]thiazol-2-yl)-1-(2,4-dimethylphenyl)prop-2-en-1-ol]

Kb [1]: 29 µM
SMILES: Cc1ccc(C2(c3nc4ccccc4s3)CO2)c(C)c1 (racemic) [compound 6, 2-(2-(2,4-Dimethylphenyl)oxiran-2-yl)benzo[d]thiazole]

pKB ± SEM (KB, μM) ([1]; functional affinity estimate (from pKB), positive allosteric modulator, allosteric site, Ca2+o as orthosteric agonist, pH 7.4, 37 °C, unreliable (extrapolated beyond highest tested concentration 30 μM)): 123 μM
SMILES: Cc1ccc(C2(c3nc4ccccc4s3)CCO2)c(C)c1 (racemic) [compound 7, 2-(2-(2,4-Dimethylphenyl)oxetan-2-yl)benzo[d]thiazole]

Kb [1]: 10 µM
SMILES: Cc1ccc(C(C)(F)c2nc3ccccc3s2)c(C)c1 (racemic) [compound 9, 2-(1-(2,4-Dimethylphenyl)-1-fluoroethyl)benzo[d]thiazole]

Reference: paper PMC11942566, “Next-Generation Analogues of AC265347 as Positive Allosteric Modulators of the Calcium-Sensing Receptor: Pharmacological Investigation of Structural Modifications at the Stereogenic Centre” (International Journal of Molecular Sciences, 2025)
